Measured values: PMC6934184, “Selective DNA-PKcs inhibition extends the therapeutic index of localized radiotherapy and chemotherapy” (The Journal of Clinical Investigation, 2019)

System: remaining 398 kinases
Assay: SelectScreen Broad Assay Panel, summary
Type: biochemical
Settings: 1 µM
Description: The in vitro kinase selectivity of NU5455 was determined using the SelectScreen Broad Assay Panel (Thermo Fisher Scientific) involving activity and binding assays (Supplemental Table 1). […] Class IA PI3Ks were measured using the p85α subunit.
Kinase [ATP] % Assay Kinase [ATP] % Assay Kinase [ATP] % Assay Kinase [ATP] % Assay
DNA-PK Km app 98.3 Z LATS2 n/a 4.7 L KIT D820E n/a 1.3 L GSK3B (GSK3 beta) Km app -2.5 Z
PIK3C3 (hVPS34) Km app 85.9 A PRKCZ (PKC zeta) Km app 4.7 Z GRK1 n/a 1.3 L BMPR2 n/a -2.5 L
PIK3C2B (PI3K-C2 beta) 10 28.9 A FGFR1 Km app 4.7 Z BRSK2 n/a 1.2 L CDC42 BPB (MRCKB) Km app -2.5 Z
SNF1LK2 Km app 26.6 Z MINK1 Km app 4.6 Z NUAK1 (ARK5) Km app 1.2 A AMPK (A2/B2/G2) n/a -2.6 L
HCK Km app 18.0 Z CSF1R (FMS) Km app 4.3 Z CDK9/cyclin K n/a 1.0 L PRKG1 Km app -2.7 Z
NEK2 Km app 17.8 Z CSNK1G3 (CK1 gamma 3) Km app 4.2 Z NUAK2 n/a 1.0 L KIT T670E n/a -2.8 L
ALK Km app 17.3 Z STK32C (YANK3) n/a 4.2 L CDK2/cyclin O n/a 0.9 L ERBB4 (HER4) Km app -2.8 Z
FGFR3 K650M n/a 16.5 L STK22D (TSSK1) Km app 4.2 Z CAMKK2 (CaMKK beta) n/a 0.9 L PLK4 n/a -2.8 L
SIK3 n/a 16.1 L TAOK3 (JIK) n/a 4.2 L FGFR3 Km app 0.9 Z GRK7 Km app -3.0 Z
LYN A Km app 15.2 Z RPS6KA4 (MSK2) Km app 4.2 Z ULK2 n/a 0.9 L MAPKAPK2 Km app -3.1 Z
BMPR1B (ALK6) n/a 14.5 L PTK2B (FAK2) Km app 4.2 Z KIT D816V n/a 0.9 L FGFR4 Km app -3.1 Z
INSRR (IRR) Km app 14.1 Z CLK2 Km app 4.1 Z CAMK1 (CaMK1) 10 0.8 A CASK n/a -3.1 L […]

For CN(C(=O)CN1CCOCC1)c1ccc2sc3c(-c4cccc5c(=O)cc(N6CC7CCC(C6)O7)oc45)cccc3c2c1 [NU5455], the “inhibition in the majority of the remaining 398 kinases” value was “less than 10%”.
